Assays:
[1] = tested on: blood vessel density in bFGF/VEGF-treated CAMs; assay: Chorioallantoic membrane (CAM) assay; format: in vivo, chick; conditions: 5 μM SHetA2; versus bFGF/VEGF-treated CAMs
Description: FIG. 8. Effect of 5 μM SHetA2 on blood vessel density in the CAM assay. The mean± SEM blood vessel density per treatment as compared to bFGF/VEGF-treated CAMs; *=p<0.05 and **=p<0.001 as compared to bFGF/VEGF-treated CAMs as determined by one-way ANOVA and Neuman-Keuls post-test.
The CAM assay that was used is based upon the original procedure by Jakob et al. (36) with modifications made by our laboratory (37, 38) (see FIG. 8).

[2] = tested on: human Caki renal cancer xenografts; assay: Caki renal cancer xenograft model; format: in vivo, mouse
Description: FIG. 12. Various Xenograft tumors stained with CD34 antibodies (brown) to identify endothelium. The B16 mouse melanoma cell line was established as a syngeneic tumor in an immunocompetent mouse model and the human Caki renal cancer and A2780 ovarian xenograft tumors in immunocompromised mice. The treated mice were gavaged with 60 mg/kg/day SHetA2 and the untreated were gavaged with solvent only. The tumors were excised and sections were stained with the anti-CD34 antibody to detect endothelial cells (brown stain).
FIG. 20. Mice harboring Caki renal cancer xenografts were treated with 60 mg/kg/day SHetA2 or PEG400 vehicle for 15 days. After another 15 days of growth, the tumors were removed, fixed, embedded and sections. Sections were stained with PAS to identify glycoproteins and lysosomes. The untreated tumor is on the left and the treated tumor is on the right.
Survival was the primary endpoint of those studies. […] Tumor growth was the primary endpoint of the renal cancer study.

Thrombospondin 4 (TSP4) = assay: Real time rt-PCR and Western blot validation, TSP-4; format: cell-based; conditions: 1 μM (rt-PCR, OVCAR-3) and 10 μM (Western blot, A2780)
Description: FIG. 13. Real Time rt-PCR validation of SHetA2 inhibition of TP and TSP-1 mRNA Expression. OVCAR-3 cultures were treated with 1 μM SHetA2 for the indicated period of time prior to harvesting the cells and isolating RNA. cDNA was prepared and used in real time rt-PCR reactions. Real time rt-PCR was performed on CDNA from cultures various treatment times.
FIG. 14. Western blot validation of SHetA2 inhibition of TP and TSP4 protein expression. A2780 ovarian cancer cells were treated with 10 μM SHetA2 for the indicated amounts of time. Equal amounts of whole cell protein extracts were evaluated by Western blot.

[3] = tested on: SW962 vulvar carcinoma cultures; assay: Annexin-V-Fluos apoptosis assay (flow cytometry); format: cell-based; conditions: 10 μM; same concentration range as 4-HPR
Description: SW962 vulvar carcinoma cultures were treated with 10 μM of the indicated retinoid or the same volume of solvent. At the specified times, the cultures were labeled with Annexin-V-Fluos and propidium iodide (PI), and the number of apoptotic cells was quantified using dual-laser flow cytometric analysis.

[4] = tested on: organotypic cultures of normal endometrial cells treated with DMBA; assay: Chemoprevention in DMBA-treated organotypic cultures of normal endometrial cells; format: cell-based; conditions: histology and karyometric analysis
Excerpt: Untreated: The specimen is cellular with both surface and mid-gel cells presence in abundance. Two cell types are clearly present. One appears to be stromal. The nuclei are thin and spindle shaped and the cytoplasm is similar. When cut in cross-section the nuclei are very small and round and hyperchromatic. The other cells have large, oval to almost boxcar nuclei with small nucleoli and abundant cytoplasm. Numerous mitosis are present. The epithelial cells are almost syncitial in nature and appear to cling to one another. With DMBA Carcinogen: The specimen is cellular. The cells present have lost their cytoplasm. There is more pleomorphism of the cells and many are very hyperchromatic. Mitoses are very numerous-approximately 2× the number in untreated. Cells no longer are together but are distinct one from another. Stromal cells intermix with the epithelial cells. […]
FIG. 19 illustrates a typical experiment in which organotypic cultures of normal endometrial cells were treated with a carcinogen called DMBA and developed the cancer phenotype. […] All segmented nuclei were then subjected to texture feature extraction using TICAS software, resulting in 95 textrue features for each nucleus that were subjected to quantitative analysis.

CC1(C)CC(C)(C)c2cc(NC(=S)Nc3ccc([N+](=O)[O-])cc3)ccc2S1 [SHetA2]
angiogenesis (blood vessel density) in CAM assay [1]: inhibits angiogenesis
tumor growth ([2]; renal cancer model, oral 60 mg/kg/day): decreased tumor growth
PAS stain: general glycoprotein expression and lysosomal staining ([2]; renal xenograft tumors, 60 mg/kg/day for 15 days, versus untreated tumors): increase in general glycoprotein expression and lysosomal staining
development of blood vessels inside tumors (anti-CD34 staining) ([2]; renal, oral 60 mg/kg/day): inhibited the development of blood vessels
expression of TSP-4 at the RNA and protein levels (Thrombospondin 4 (TSP4)): inhibit expression
induction of apoptosis (Annexin-V-Flous assay) [3]: induced apoptosis
development of the DMBA-induced cancer phenotype [4]: prevented the development of this phenotype

— US20060281806A1, “Treatment and inhibition of disease conditions using flexible heteroarotinoids” (priority 2005, published 2006)
